Entries after “also recorded” stand apart in the source; their conditions may differ.
Columns and labels:
[1] = target: T1, Recombinant human GST M1-1 (Homo sapiens, UniProt P09488); experiment: Inhibition of glutathione S-transferase isoenzyme GST M1-1 (CDNB/GSH, absorbance at 340 nm); format: biochemical; details: diacids (row number n = compound nA), pH 6.5, 2% DMSO
T1 construct: purchased EMD Biosciences, Inc., San Diego, Calif., U.S.A
T1 sequence (P09488 2-218 limits assumed): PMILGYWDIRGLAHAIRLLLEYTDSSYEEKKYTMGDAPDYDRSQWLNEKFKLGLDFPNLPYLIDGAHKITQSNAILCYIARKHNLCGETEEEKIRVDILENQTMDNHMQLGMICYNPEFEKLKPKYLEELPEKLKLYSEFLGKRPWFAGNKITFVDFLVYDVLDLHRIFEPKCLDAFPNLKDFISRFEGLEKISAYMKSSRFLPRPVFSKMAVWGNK
Description: (§1) In vitro Example 1. Inhibition of glutathione S-transferase isoenzymes. […] For each assay, the test compound and GSH were added to the isoenzyme. Immediately after the addition of CDNB solution to the isoenzyme/compound/GSH solution, the absorbance at 340 nm was recorded continuously for 5 min on a SpectraMax plate reader (Molecular Devices, Inc., Sunnyvale, Calif., U.S.A.). The GST inhibitory activity of each compound was calculated from the slopes of the absorbance/time curves at the various concentrations of test compound. All assays were conducted in duplicate wells, with DMSO control, with the final DMSO concentration maintained at 2%.

[2] = target: T2, Recombinant human GST P1-1 (Homo sapiens, UniProt P09211); experiment: Inhibition of glutathione S-transferase isoenzyme GST P1-1 (CDNB/GSH, absorbance at 340 nm); format: biochemical; details: diacids (row number n = compound nA), pH 6.5, 2% DMSO
T2 construct: purchased EMD Biosciences, Inc., San Diego, Calif., U.S.A
Description: as §1

[3] = target: T3, Recombinant human GST A1-1 (Homo sapiens, UniProt P08263); experiment: Inhibition of glutathione S-transferase isoenzyme GST A1-1 (CDNB/GSH, absorbance at 340 nm); format: biochemical; details: diacids (row number n = compound nA), pH 6.5, 2% DMSO
T3 construct: purchased EMD Biosciences, Inc., San Diego, Calif., U.S.A
T3 sequence (P08263 1-222): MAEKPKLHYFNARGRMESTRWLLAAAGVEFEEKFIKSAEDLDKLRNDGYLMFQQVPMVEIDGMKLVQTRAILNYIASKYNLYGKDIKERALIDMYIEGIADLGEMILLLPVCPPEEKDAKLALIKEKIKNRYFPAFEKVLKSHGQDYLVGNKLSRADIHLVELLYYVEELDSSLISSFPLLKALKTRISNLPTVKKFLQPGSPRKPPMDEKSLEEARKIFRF
Description: as §1

[4] = Phase II, interim results; cited from earlier work
[5] = both in vitro and in vivo; cited from earlier work
HL-60 cells [6] = experiment: Enhancement of differentiation of HL-60 cells (CD11b surface expression, flow cytometry); format: cell-based, human; details: diethyl esters, 24 hours
Description: Some of the diethyl ester compounds of this invention were also tested for their ability to enhance the differentiation of HL-60 cells. This illustrates the beneficial effect of the compounds of this invention in stimulating differentiation of the HL-60 human leukemia cell line in vitro. […] The cells were harvested by centrifugation (1250 rpm for 5 min at 20° C.) and washed with 2 mL ice-cold phosphate-buffered saline (PBS) containing 2% FBS, then stained with 10 μL phycoerythrin-conjugated anti-CD11b antibody or 10 μL phycoerythrin-conjugated isotype control antibody. After standing for 30 min on ice, the cells were re-suspended in 2 mL ice-cold PBS containing 2% FBS. The cells were harvested by centrifugation (1250 rpm for 5 min at 20° C.) and resuspended in 0.4 mL PBS containing 2% FBS. The specific cell surface expression of CD11b, a marker for granulocytes and monocytes, was detected by flow cytometry using a FACSCalibur analyzer (BD Biosciences). All assays were conducted in triplicate, with DMSO control. The extent of differentiation was expressed as a multiple of the signal from the DMSO control.

HL-60 cells [7] = details: background statement; cited from earlier work

T2 sequence (P09211 2-210 limits assumed): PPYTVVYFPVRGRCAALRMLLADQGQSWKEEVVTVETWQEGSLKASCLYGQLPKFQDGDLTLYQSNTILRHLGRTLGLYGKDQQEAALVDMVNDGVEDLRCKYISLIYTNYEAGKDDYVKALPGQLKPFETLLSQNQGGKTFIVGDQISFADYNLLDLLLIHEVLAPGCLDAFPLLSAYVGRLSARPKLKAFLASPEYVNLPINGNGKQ

SMILES	IC50 [1]	IC50 [2]	IC50 [3]	Hematologic response in humans [4]	Tolerability in MDS patients [4]	Potentiation of the activity of cytotoxic agents [5]	Differentiation of HL-60 cells (CD11b expression as multiple of DMSO control) (HL-60 cells [6])	Differentiation of HL-60 promyelocytic leukemia cells in vitro (HL-60 cells [7])
N[C@@H](CCC(=O)N[C@@H](CS(=O)(=O)Cc1ccc([N+](=O)[O-])o1)C(=O)N[C@@H](C(=O)O)c1ccccc1)C(=O)O [Compound 14A, L-γ-glutamyl-3-[(5-nitrofuran-2-ylmethyl)sulfonyl]-L-alanyl-D-phenylglycine]	100 µM	3.2 µM	52 µM					
CCOC(=O)[C@@H](N)CCC(=O)N[C@@H](CSCc1ccccc1)C(=O)N[C@@H](C(=O)OCC)c1ccccc1 [TLK199]				myelostimulant activity in humans; also recorded: multilineage hematologic improvement	well tolerated	chemopotentiation activity in an animal model	enhances differentiation	induce the differentiation of HL-60 promyelocytic leukemia cells
